# Several values for one entry are separate records, joined by “and”; a condition that tells them apart may be missing. Equal values may be shown once. Entries after “also recorded” stand apart in the source; their conditions may differ.
# Experiments:
# [1] = test system: hypercholesterolemic Ldlr−/− mice; assay: Atherosclerosis in western-diet-fed Ldlr−/− mice (Oil-Red-O proximal aorta sections and en face aorta); assay type: in vivo, mouse; conditions: western diet 16 weeks; for effect on atherosclerosis: hypercholesterolemic Ldlr−/− mice
# Procedure: Ldlr^−/− and WT on C57BL/6 background mice were obtained from the Jackson Laboratory. Animal protocols were performed according to the regulations of Vanderbilt University's Institutional Animal Care and Usage Committee. Mice were maintained on chow or a Western-type diet containing 21% milk fat and 0.15% cholesterol (Teklad). Eight week old, female Ldlr^−/− mice on a chow diet were pretreated with vehicle alone (Water) or containing either 1 g/L of 4-HOBA or 1 g/L of 2-HOBA. 4-HOBA (as hydrochloride salt) was synthesized as previously described^21. 2-HOBA (as the acetate salt, CAS 1206675-01-5) was manufactured by TSI Co., Ltd. (Missoula, MT) and obtained from Metabolic Technologies, Inc., Ames, IA^24. A commercial production lot was used (Lot 16120312), and the purity of the commercial lot was verified to be >99% via HPLC and NMR spectroscopy^24. After two weeks, the mice continued to receive these treatments but were switched to a western diet for 16 weeks to induce hypercholesterolemia and atherosclerosis. Similarly, 12 week-old male Ldlr^−/− mice were pretreated with vehicle alone (water) or containing 1 g/L of 2-HOBA for two weeks and were then switched to a western diet for 16 weeks to induce hypercholesterolemia and atherosclerosis, while continuing the treatment with 2-HOBA or water alone^58, 59, 60 Based on the average weight and daily consumption of water per mouse the estimated daily dosage with 1 g/L of 2-HOBA is 200 mg/Kg. […] Eight week old, male Ldlr^−/− mice were fed a western diet for 16 weeks and were continuously treated with water containing either 2-HOBA or 4-HOBA. Urine samples were collected using metabolic cages (2 mice in one cage) during 18 h after oral gavage with either 2-HOBA or 4-HOBA (5 mg each mouse).
# The extent of atherosclerosis was examined both Oil-Red-O-stained cross-sections of the proximal aorta and by en face analysis^30. Briefly, cryosections of 10-micron thickness were cut from the region of the proximal aorta starting from the end of the aortic sinus and for 300 μm distally, according to the method of Paigen et al.^62. The Oil red-O staining of 15 serial sections from the root to ascending aortic region were used to quantify the Oil red-O-positive staining area per mouse. The mean from the 15 serial sections was applied for the aortic root atherosclerotic lesion size per mouse using the KS300 imaging system (Kontron Elektronik GmbH) as described^63, 64, 65. All other stains were done using sections that were 40 to 60 μm distal of the aortic sinus. For each mouse, 4 sections were stained and quantitation was done on the entire cross section of all 4 sections. For immunofluorescence staining, 5 μm cross-sections of the proximal aorta were fixed in cold acetone (Sigma), blocked in Background Buster (Innovex), incubated with indicated primary antibodies (MDA and CD68) at 4° C. for overnight. After incubation with fluorescent labeled secondary antibodies at 37 C for 1 hour, the nucleus was counterstained with Hoechst. Images were captured with a fluorescence microscope (Olympus IX81) and SlideBook 6 (Intelligent-Image) software and quantitated using ImageJ software (NIH)^66.
# [2] = test system: F2-IsoP; assay: Urine F2-isoprostane levels (LC/MS/MS); assay type: in vivo, mouse; conditions: Ldlr−/− mice, western diet 16 weeks, 1 g/L; vehicle, 4-HOBA, 2-HOBA compared
# Procedure: The urine F2-IsoP levels were measured by LC/MS/MS) from Ldlr^−/− mice consuming a western diet for 16 weeks and treated with 1 g/L 2-HOBA, 4-HOBA, or vehicle. N=5 or 6 per group, p=0.43, Kruskal-Wallis test. Urinary creatinine levels were measured for normalization.
# [3] = test system: MDA; assay: HOBA-MDA adducts in macrophages incubated with ox-LDL (LC-MS/MS); assay type: cell-based, mouse; conditions: 24 h; for HOBA-MDA (propenal-HOBA) adducts in macrophages: macrophages treated with oxidized LDL, 2-HOBA versus 4-HOBA
# Procedure: Peritoneal macrophages were isolated from C57BL/6J mice and incubated with 50 μg/mL ox-LDL, and treated with either 250 μm 2-HOBA or 4-HOBA (18A), or 5 μm of 2-HOBA or 4-HOBA (18B, 18C, 18D) for 24 h. Cell samples were collected and the HOBA-MDA adducts were measured using LC-MS/MS as described in supplemental methods. * p<0.05, One-way ANOVA with Bonferroni's post hoc test.
# The scavenger-MDA adducts were extracted, (1) from homogenate of tissue (equivalent of 30 mg) or (2) from cells (1 ml), three times with 500 μl of ethyl acetate. The extract was dried down, resuspended in 100 μl of ACN-water (1:1, v/v with 0.1% formic acid), vortexed, and filtered through a 0.22 μm spin X column. The reactions were analyzed by LC-EST/MS/MS using the column a Phenomenex Kinetex column at a flow rate of 0.1 ml/min. The gradient consisted of Solvent A, water with 0.2% formic acid and solvent B, acetonitrile with 0.2% formic acid. The gradient was as follows: 0-2 min 99.9% A, 2-9 min 99.9-0.1% A, 9-12 min 99.9% B. The mass spectrometer was operated in the positive ion mode, and the spray voltage was maintained at 5,000 V. Nitrogen was used for the sheath gas and auxiliary gas at pressures of 30 and 5 arbitrary units, respectively. The optimized skimmer offset was set at 10, capillary temperature was 300° C., and the tube lens voltage was specific for each compound. SRM of specific transition ions for the precursor ions at m/z 178→107 (propenal-HOBA adduct).
# [4] = male Ldlr−/− mice, 1 g/L, compared to water
SMILES,effect on atherosclerosis ([1]; 1 g/L),urine F2-IsoP levels [2],HOBA-MDA (propenal-HOBA) adducts in macrophages [3],"reduction of extent of proximal aortic atherosclerosis ([1]; female Ldlr−/− mice, 1 g/L in water, compared to 4-HOBA)","reduction of extent of proximal aortic atherosclerosis ([1]; female Ldlr−/− mice, 1 g/L in water, compared to vehicle)","reduction of extent of aortic atherosclerosis, en face analysis ([1]; female Ldlr−/− mice, 1 g/L, compared to 4-HOBA)","reduction of extent of aortic atherosclerosis, en face analysis ([1]; female Ldlr−/− mice, 1 g/L, compared to vehicle)","reduction of extent of proximal aortic atherosclerosis [1, 4]","reduction of extent of whole aorta atherosclerosis [1, 4]","propenal-2-HOBA, DHP-MDA-2-HOBA and crosslinked MDA-2-HOBA adducts in cells ([3]; cells incubated with 5 μM, ox-LDL)"
"NCc1ccc(O)cc1 [4-HOBA, 4-hydroxybenzylamine, reference compound]",not atheroprotective,not different,undetectable,,,,,,,
"NCc1ccccc1O [2-HOBA, 2-hydroxybenzylamine]",attenuates atherosclerosis; also recorded: reduces atherosclerotic lesions,not significantly different; also recorded: does not impact,increased; also recorded: readily detected; also recorded: formation of 2-HOBA-MDA adducts,31.5%,31% and 31.1%,59.1%,60% and 60.3%,37%,45%,significant levels of propenal-2-HOBA were formed

# — US20230364032A1, “USE OF 2-HOBA TO TREAT ATHEROSCLEROSIS” (Vanderbilt University, priority 2020, published 2023)
